Earlier results as cited in publication PMC9145865, “Effects of Rare Phytocannabinoids on the Endocannabinoid System of Human Keratinocytes” (International Journal of Molecular Sciences, 2022).

Test system: transformed human keratinocytes
Design: method as in PMID 17157480
Conditions: hyperproliferative conditions; ref [46]; cited from earlier work

| SMILES | proliferation of transformed human keratinocytes |
| --- | --- |
| C=C(C)[C@@H]1CCC(C)=C[C@H]1c1c(O)cc(CCCCC)cc1O [CBD, cannabidiol] | inhibit the proliferation |
| CCCCCc1cc(O)c2c(c1)OC(C)(C)[C@@H]1CCC(C)=C[C@@H]21 [Δ^9-THC, Δ^9-tetrahydrocannabinol] | inhibit the proliferation |
